Reference: patent publication US20070010565A1, “New thiazolidinones without basic nitrogen, their production and use as pharmaceutical agents” (priority 2005, published 2007)

Legend:
[1] = target: T1, Recombinant human Plk-1 (6×His) (Homo sapiens, UniProt P53350); experiment: PLK enzyme assay; format: biochemical; details: biotinylated casein and 33P-γ-ATP substrate, 90 minutes at room temperature, SPA beads; read-out: PLK-1 IC50 [nM] Inhibition
T1 construct: 6xHis; made in house; host or cells: baculovirus-infected insect cells (Hi5)
Description: Recombinant human Plk-1 (6×His) was purified from baculovirus-infected insect cells (Hi5).
10 ng of (produced in a recombinant manner and purified) PLK enzyme is incubated for 90 minutes at room temperature with biotinylated casein and 33P-γ-ATP as a substrate in a volume of 15 μl in 384-well Greiner small-volume microtiter plates (final concentrations in the buffer: 660 ng/ml of PLK; 0.7 μmol of casein, 0.5 μmol of ATP incl. 400 nCi/ml of 33P-γ-ATP; 10 mmol of MgCl2, 1 mmol of MnCI2; 0.01% NP40; 1 mmol of DTT, protease inhibitors; 0.1 mmol of Na2VO3 in 50 mmol of HEPES, pH 7.5). To complete the reaction, 5 μl of stop solution (500 μmol of ATP; 500 mmol of EDTA; 1% Triton X100; 100 mg/ml of streptavidin-coated SPA beads in PBS) is added. After the microtiter plate is sealed by film, the beads are sedimented by centrifuging (10 minutes, 1500 rpm). The incorporation of 33P-γ-ATP in casein is intended as a measurement of enzyme activity by β-counting.
Test substances are used in various concentrations (0 μmol, as well as in the range of 0.01-30 μmol). The final concentration of the solvent dimethyl sulfoxide is 1.5% in all batches.

[2] = tested on: human MaTu breast tumour cells; experiment: Proliferation assay (crystal violet); format: cell-based; details: 96 h, 4 days incubation, read-out: Inhibition of the Tumour Cell Proliferation (MaTu) IC50
Description: Cultivated human MaTu breast tumour cells were flattened out at a density of 5000 cells/measuring point in a 96-well multititer plate in 200 μl of the corresponding growth medium. After 24 hours, the cells of one plate (zero-point plate) were colored with crystal violet (see below), while the medium of the other plates was replaced by fresh culture medium (200 μl), to which the test substances were added at various concentrations (0 μm, as well as in the range of 0.01-30 μm; the final concentration of the solvent dimethyl sulfoxide was 0.5%). The cells were incubated for 4 days in the presence of test substances. The cell proliferation was determined by coloring the cells with crystal violet: the cells were fixed by adding 20 μl/measuring point of an 11% glutaric aldehyde solution for 15 minutes at room temperature. After three washing cycles of the fixed cells with water, the plates were dried at room temperature. The cells were colored by adding 100 μl/measuring point of a 0.1% crystal violet solution (pH was set at 3 by adding acetic acid). […] The extinction was determined by photometry at a wavelength of 595 nm. The change of cell growth, in percent, was calculated by standardization of the measured values to the extinction values of the zero-point plate (=0%) and the extinction of the untreated (0 μm) cells (=100%).

T1 sequence (P53350 whole entry): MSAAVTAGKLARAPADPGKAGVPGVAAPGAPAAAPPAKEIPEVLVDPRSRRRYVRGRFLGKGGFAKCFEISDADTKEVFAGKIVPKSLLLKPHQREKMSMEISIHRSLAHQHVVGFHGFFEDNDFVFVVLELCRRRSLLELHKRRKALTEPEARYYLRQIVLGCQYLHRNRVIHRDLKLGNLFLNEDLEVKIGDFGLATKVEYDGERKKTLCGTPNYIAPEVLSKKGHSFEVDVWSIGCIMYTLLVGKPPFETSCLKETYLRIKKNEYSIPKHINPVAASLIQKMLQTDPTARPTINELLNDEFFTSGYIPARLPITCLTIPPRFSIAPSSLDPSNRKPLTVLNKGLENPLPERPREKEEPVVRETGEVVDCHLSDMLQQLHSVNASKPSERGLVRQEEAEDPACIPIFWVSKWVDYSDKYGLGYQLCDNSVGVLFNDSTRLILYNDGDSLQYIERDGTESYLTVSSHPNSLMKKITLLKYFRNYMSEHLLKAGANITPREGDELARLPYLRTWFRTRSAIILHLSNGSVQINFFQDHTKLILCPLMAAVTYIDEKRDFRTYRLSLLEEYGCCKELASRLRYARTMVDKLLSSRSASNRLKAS

Row | IC50 [1] [nM] | IC50 [2] [nM] | SMILES
1 | 39 | 3200 | C#CCNC(=O)/C(C#N)=c1\sc(=Cc2ccc(O)cc2)c(=O)n1CC [Example 8]
2 | 230 |  | CCNC(=O)/C(C#N)=c1\sc(=Cc2ccc(O)cc2)c(=O)n1CC [Example 3]
3 | 23 |  | C#CCNC(=O)/C(C#N)=c1\sc(=Cc2ccc(N3CCCC3)cc2)c(=O)n1CC [Example 10]
